Laboratory results: patent US4200750A, “4-Substituted imidazo [1,2-a]quinoxalines” (Westwood Pharmaceuticals Inc., priority 1977, dated 1980)
≈ marks a conversion by molar mass, not a printed value. Values belong to the compound of their own block, whether it stands above or below them.

Assays:
[1] = system: immunosuppressant activity; assay: Immunosuppressant activity (general statement); format: in vivo; conditions: result in words
[2] = system: T. rubrum; assay: Agar dilution antifungal assay, Trichophyton rubrum; format: cell-based, Trichophyton rubrum (ATCC No. 10218 and 14001); conditions: for MIC: Trichophyton rubrum, read-out: Parts Per Million Inhibitions, T. rubrum
Method: (§1) Various compounds of this invention display antifungal and anti-yeast activity.
(§2) In Table IX below are listed the antifungal activity of a number of compounds encompassed in the present invention. These were determined by the agar dilution method as described in Chapters 2 and 3 of Methods in Microbiology, Vol. 7B, edited by J. R. Norris and D. W. Ribbons, Academic Press, New York, 1972.

[3] = system: Rat Paw Edema; assay: Rat paw edema assay, local administration; format: in vivo; conditions: injected directly into paw, carrageenan
Method: The anti-inflammatory activity of representative compounds of this invention was determined by the rat paw edema assay both by local administration (Table XI below) and by oral dosing (Table XII below). For the oral dosing, the procedure of C. A. Winter, E. A. Risley and G. W. Nuss, Proc. Soc. Exp. Biol. Med. 111, 544 (1962) was employed with measurement taken four hours after the drug was administered. The local administration tests were carried out similarly except the irritant (carrageenan) and the test compound were injected simultaneously at time zero.
Tables XI and XII report the anti-inflammatory activity of the compounds tested as % difference in the edema or swelling as compared with the control. These Tables also give the response in many instances of more than one dose level of the same drug.

[4] = system: T. ajelloi; assay: Agar dilution antifungal assay, Trichophyton ajelloi; format: cell-based
Method: as §1, §2

[5] = system: T. mentagrophytes; assay: Agar dilution antifungal assay, Trichophyton mentagrophytes; format: cell-based, Trichophyton mentagrophytes (ATCC No. 8757 and 9129)
Method: as §1, §2

SMILES: c1ccc2c(c1)ncc1nccn12 [Compound 109, imidazo[1,2-a]quinoxaline]
immunosuppressant activity [1]: lacks immunosuppressant activity

MIC [2]: 16 µg/mL (≈ 71 µM)
SMILES: CCCCc1nc2ccccc2n2ccnc12 [Compound 113]

SMILES: CCCCCc1nc2ccccc2n2ccnc12 [Compound 114]
% Difference from Control (edema), local administration, 10 μg [3]: -30.0%

MIC [2]: 8 µg/mL (≈ 28.4 µM) | MIC ([4]; Arthroderma uncinatum, read-out: Parts Per Million Inhibitions, T. ajelloi): 16 µg/mL (≈ 56.9 µM) | MIC ([5]; Trichophyton mentagrophytes, read-out: Parts Per Million Inhibitions, T. mentagrophytes): 16 µg/mL (≈ 56.9 µM)
SMILES: CCCCCCCCc1nc2ccccc2n2ccnc12 [Compound 117]

SMILES: c1ccc(-c2nc3ccccc3n3ccnc23)cc1 [Compound 131, 4-phenylimidazo[1,2-a]quinoxaline]
immunosuppressant activity [1]: only minor activity

SMILES: Clc1cccc(Nc2nc3ccccc3n3ccnc23)c1 [Compound 179]
Parts Per Million Inhibitions, T. rubrum [2]: 100 Parts Per Million | Parts Per Million Inhibitions, T. ajelloi [4]: 100 Parts Per Million | Parts Per Million Inhibitions, T. mentagrophytes [5]: 100 Parts Per Million
